# Test results from patent publication US20120263784A1, “EMERGENCY CONTRACEPTIVE” (LYKA LABS LIMITED, priority 2009, published 2012).
# Experiments:
# [1] = in vivo; details: rat, po, 10 ug
# Experimental: Size of the drug particles and liposomes in all the formulations was kept between 10-15 μm, as the particles with 10-20 μm are all deposited in the nasal cavity, whereas particles smaller than 1 μm pass with inspired air into the lungs.
# Suspension containing 10-μg levonorgestrel was administered intranasally in three different group of rats.
# Blood samples were collected at specific time points and plasma levonorgestrel concentrations were estimated. The drug plasma concentration at each sampling time point were plotted against time in hr.
# The mucociliary clearance under normal conditions rapidly clears the applied material since there is a little time of contact between the drug and the mucosa. […] CS acts by opening tight junction between epithelial cells.
# [2] = in vivo; details: rat, po
# Experimental: Similarly, 10-μg of LN suspension was administered orally. Blood samples were collected at specific time points and plasma LN concentrations were estimated. The drug plasma concentration at each sampling time points were plotted against time in hr.
# Various pharmacokinetic parameters (Cmax, Tmax and t1/2) were determined from drug plasma concentration-time curve. The area under the plasma level curve was calculated by the trapezoidal rule.
compound,measurement,setting,value
C#C[C@]1(O)CC[C@H]2[C@@H]3CCC4=CC(=O)CC[C@@H]4[C@H]3CC[C@@]21CC [levonorgestrel],Cmax,[1],14.4 ng/mL
same,Tmax,[1],2.1 h
same,half-life,[1],16.9 h
same,Cmax,[2],14.4 ng/mL
same,half-life,[2],16.9 h
